Legend:
OPM-2-BZ^R = assay: MTT antiproliferative assay, OPM-2-BZR; type: cell-based; conditions: Homo sapiens, OPM-2-BZ^R (bortezomib resistant), 72 hours
Experimental: (§1) Cell viability was monitored by the MTT (3-(4,5-dimethylthiazol-2-yl)-2,5-diphenyltetrazolium bromide) assay. For the MTT assay, cells were suspended at 5 × 10^5 cells/ml, and 100 μl aliquots were dispended into 96-well microtiter plates and exposed to drugs as described using DMSO control. At the end of incubations, 10 μl of a stock solution of 5 mg/ml MTT (3-(4,5-dimethylthiazol-2-yl)-2,5-diphenyltetrazolium bromide), was added into each well, and the plates were incubated 4 hours at 37 °C. Formazan crystals were dissolved with 100 μl of 10% SDS/10 mM HCl solution overnight at 37 °C. Since MTT assays are affected by mitochondrial activity, and since OXPHOS is affected by VLX1570 (unpublished observation), we used the acid phosphatase method[49] to determine cell viability in some experiments. After washing twice with PBS, cells were lysed in 100 μl of 0.1 M sodium acetate, 0,1% Triton X-100, p-nitrophenylphosphate (Pierce Biotechnology Inc, Rockford, IL) and incubated for 90 min at 37 °C. At the end of the incubation, 10 μl NaOH was added to each well and A405 was determined.

proteasome DUB activity = test system: proteasome DUB activity; design: method as in PMID 25854145; conditions: in cells; read-out: in vivo IC50 for inhibition of proteasome DUB activity and induction of apoptosis; cited from earlier work
USP14 [1] = biological target: T1, USP14 (Homo sapiens, UniProt P54578); assay: Cellular thermal shift assay (CETSA) in OPM-2 cells; type: cell-based; design: endogenous in cells; host or cells: OPM-2 multiple myeloma cells; conditions: 1 μM, 1 hour
T1 sequence (P54578 whole entry): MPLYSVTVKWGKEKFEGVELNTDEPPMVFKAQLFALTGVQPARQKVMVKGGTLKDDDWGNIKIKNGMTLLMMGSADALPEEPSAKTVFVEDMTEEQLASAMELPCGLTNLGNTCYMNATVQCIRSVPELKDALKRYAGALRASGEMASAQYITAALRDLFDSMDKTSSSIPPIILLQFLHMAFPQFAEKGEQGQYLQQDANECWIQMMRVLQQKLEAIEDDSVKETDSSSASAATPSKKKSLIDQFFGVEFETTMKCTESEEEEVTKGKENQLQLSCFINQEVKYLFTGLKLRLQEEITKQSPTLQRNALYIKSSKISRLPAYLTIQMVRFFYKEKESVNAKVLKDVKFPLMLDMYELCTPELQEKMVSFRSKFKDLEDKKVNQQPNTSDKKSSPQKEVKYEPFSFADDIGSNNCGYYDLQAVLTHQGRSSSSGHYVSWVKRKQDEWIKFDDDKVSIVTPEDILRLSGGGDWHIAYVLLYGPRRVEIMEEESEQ
Experimental: For CETSA, the same amount of cells as one sample was treated with required condition and collected as described. Each sample was suspended in PBS supplemented with protease inhibitors after they were washed in PBS. And then these samples were heated at 51, 53, or 55 °C for 3 min. Immediately after heating, tubes were removed and incubated at room temperature for 3 min, and then snap-frozen in liquid nitrogen. Samples were freeze-thawed twice and centrifuged at 20,000 g for 20 min at +4 °C and supernatants were analysed by Western-blotting.

USP14 [2] = biological target: T1, USP14; assay: Ub-VS labeling of lysates of exposed OPM-2 cells, USP14; type: cell-based; design: endogenous in cells; host or cells: OPM-2 multiple myeloma cells; conditions: 0.5 μM, 3 hours
Experimental: Cell extract proteins were resolved by Tris-Acetate PAGE gels (Invitrogen, Carlsbad, CA) and transferred onto a polyvinylidene difluoride (PVDF) membrane for western blotting. For Ub-VS labeling, we lysed cell pellets from control or treated cells with buffer (50 mM HEPES pH 7.4, 250 mM sucrose, 10 mM MgCl2, 2 mM ATP, 1 mM DTT and 1%NP-40) on ice for 30 min and removed debris by centrifugation. We labeled 25 μg of protein with 1 μM Ub-VS for 30 min at 37 °C. We resolved samples by SDS-PAGE and performed immunoblotting. For HA-Ub-VS labeling, we pretreated purified 19S (5 nM) with DMSO or 2.5, 5, 10, 15 or 25μM 1570 for 10 min at room temperature, which followed with labeling with 1 μM HA-Ub-VS for 30 min at 37 °C and immunoblotting.

myeloma cells = assay: CFSE cell proliferation assay; type: cell-based, human; conditions: 0.25 μM or 0.5 μM; 72 hours
Experimental: Cell proliferation was measured using the Cell trace^TM CSFE cell proliferation kit. Cells were suspended at 5 × 10^5 cells/ml, incubated with CellTrace^TM reagent for 20 minutes and exposed to the drug at indicated concentrations using DMSO as a control. After 72 h cells were collected, washed twice in 1× PBS, fixed with 3,7% formaldehyde and analysed by flow cytometry.

KMS-11 = assay: MTT antiproliferative assay, KMS-11; type: cell-based; conditions: Homo sapiens, 72 hours
Experimental: as §1

For `C=CC(=O)N1CC/C(=C\c2ccc(F)c([N+](=O)[O-])c2)C(=O)/C(=C/c2ccc(F)c([N+](=O)[O-])c2)C1` [VLX1570], the IC50 (OPM-2-BZ^R) is listed as 191 ± 1 nM, the IC50 (proteasome DUB activity) is listed as under 1000 nM and the “thermostabilization of USP14” value (USP14 [1]) is listed as “thermostabilized”. For the same compound, the “thermostabilization of USP14” value (USP14 [1]; 53°–55 °C) was 2.5 fold control, the “inhibition of USP14 activity in exposed cells” value (USP14 [2]) was “Inhibition of USP14 activity could be demonstrated” and the “cell cycle arrest (CFSE dilution)” value (myeloma cells) was “arrest myeloma cells in the cell cycle”. It also gave an IC50 (KMS-11) of 43 ± 2 nM.
